Reference: ChEMBL document CHEMBL3112467, “In vitro phenotypic screening of 7-chloro-4-amino(oxy)quinoline derivatives as putative anti-Trypanosoma cruzi agents” (Bioorg Med Chem Lett, 2014)

How the values were obtained:
[1] = Selectivity index, ratio of LC50 for mouse NCTC-929 cells to IC50 for epimastigote stage of Trypanosoma cruzi CL Brener; format: toxicity, cell-based; details: read-out: Ratio LC50/IC50
[2] = Cytotoxicity against mouse NCTC-929 cells after 48 hrs by resazurin staining-based fluorescence assay; format: cell-based; details: read-out: LC50
Trypanosoma cruzi [3] = test: Antimicrobial activity against epimastigote stage of Trypanosoma cruzi CL Brener assessed as growth inhibition after 72 hrs by beta-galactosidase reporter gene assay; format: functional, organism-based
Trypanosoma cruzi [4] = test: Antimicrobial activity against epimastigote stage of Trypanosoma cruzi CL Brener assessed as growth inhibition at […] after 72 hrs by beta-galactosidase reporter gene assay; format: functional; details: read-out: GI
[5] = Cytotoxicity against mouse NCTC-929 cells at […] after 48 hrs by resazurin staining-based fluorescence assay; format: cell-based; details: read-out: INH
Trypanosoma cruzi [6] = test: Antimicrobial activity against amastigote stage of Trypanosoma cruzi CL Brener infected in mouse NCTC-929 cells assessed as growth inhibition at 0.5 uM after 7 days by beta-galactosidase reporter gene assay; format: functional; details: NCTC-929, 168 h, read-out: GI
Trypanosoma cruzi [7] = test: Antimicrobial activity against amastigote stage of Trypanosoma cruzi CL Brener infected in mouse NCTC-929 cells assessed as growth inhibition at 1 uM after 7 days by beta-galactosidase reporter gene assay; format: functional; details: NCTC-929, 168 h, read-out: GI
Trypanosoma cruzi [8] = test: Antimicrobial activity against amastigote stage of Trypanosoma cruzi CL Brener infected in mouse NCTC-929 cells assessed as growth inhibition at 2 uM after 7 days by beta-galactosidase reporter gene assay; format: functional; details: NCTC-929, 168 h, read-out: GI
Trypanosoma cruzi [9] = test: Antimicrobial activity against amastigote stage of Trypanosoma cruzi CL Brener infected in mouse NCTC-929 cells assessed as growth inhibition at 4 uM after 7 days by beta-galactosidase reporter gene assay; format: functional; details: NCTC-929, 168 h, read-out: GI
Trypanosoma cruzi [10] = test: Antimicrobial activity against amastigote stage of Trypanosoma cruzi CL Brener infected in mouse NCTC-929 cells assessed as growth inhibition at 8 uM after 7 days by beta-galactosidase reporter gene assay; format: functional; details: NCTC-929, 168 h, read-out: GI
Trypanosoma cruzi [11] = test: Antimicrobial activity against amastigote stage of Trypanosoma cruzi CL Brener infected in mouse NCTC-929 cells assessed as growth inhibition at 16 uM after 7 days by beta-galactosidase reporter gene assay; format: functional; details: NCTC-929, 168 h, read-out: GI
Trypanosoma cruzi [12] = test: Antimicrobial activity against amastigote stage of Trypanosoma cruzi CL Brener infected in mouse NCTC-929 cells assessed as growth inhibition at 32 uM after 7 days by beta-galactosidase reporter gene assay; format: functional; details: NCTC-929, 168 h, read-out: GI
in vitro = details: mouse, NCTC-929 cells
Description: Selectivity index, ratio of LC50 for mouse NCTC-929 cells to IC50 for amastigote stage of Trypanosoma cruzi CL Brener infected in mouse NCTC-929 cells

Trypanosoma cruzi [13] = test: Antimicrobial activity against amastigote stage of Trypanosoma cruzi CL Brener infected in mouse NCTC-929 cells assessed as growth inhibition after 7 days by beta-galactosidase reporter gene assay; format: functional, organism-based; details: NCTC-929, 168 h

SMILES | selectivity ratio [1] | CC50 at 48 h [2] [µM] | IC50 (Trypanosoma cruzi [3]) [µM] | inhibition of growth at […] (Trypanosoma cruzi [4]) [%] | cytotoxicity at 48 h, […] [5] [%] | inhibition of growth at 0.5 µM (Trypanosoma cruzi [6]) [%] | inhibition of growth at 1 µM (Trypanosoma cruzi [7]) [%] | inhibition of growth at 2 µM (Trypanosoma cruzi [8]) [%] | inhibition of growth at 4 µM (Trypanosoma cruzi [9]) [%] | inhibition of growth at 8 µM (Trypanosoma cruzi [10]) [%] | inhibition of growth at 16 µM (Trypanosoma cruzi [11]) [%] | inhibition of growth at 32 µM (Trypanosoma cruzi [12]) [%] | selectivity ratio (in vitro) | IC50 (Trypanosoma cruzi [13]) [µM]
O=C1CSC(c2ccc3c(c2)OCO3)N1CCNc1ccnc2cc(Cl)ccc12 (stereo unspecified) | 2.85 | 19.5 | 6.84 | 84.3 | – | – | – | – | – | – | – | – | – | –
Clc1ccc2c(NCc3ccccc3)ccnc2c1 | 3.71 | 2.28 | 6.55 | 95.1 | 71.4 | – | – | – | – | – | – | – | – | –
O=C(Cn1ccnc1[N+](=O)[O-])NCc1ccccc1 [BENZNIDAZOLE] | > 9.44 | > 256 | – | 82 | 17.4 | 41.6 | 55.6 | 64.4 | 74.7 | 96.6 | 100 | 100 | > 320 | –
CC1CS(=O)(=O)CCN1/N=C/c1ccc([N+](=O)[O-])o1 (stereo unspecified) [NIFURTIMOX] | – | – | – | 100 | 26.8 | 96.5 | 100 | 100 | 100 | 100 | 100 | 100 | – | < 0.5
